Counter-ions that a name gives are not always drawn.
Assays:
[1] = test system: HL-60, Human promyelocytic leukemia; assay: MTT proliferation assay, HL-60 cells; type: cell-based; settings: 3 replicates
[2] = test system: CCRF-SB, Human acute lymphoblastic leukemia; assay: MTT proliferation assay, CCRF-SB cells; type: cell-based; settings: 3 replicates
[3] = test system: Molt-4, Human acute lymphoblastic leukemia; assay: MTT proliferation assay, Molt-4 cells; type: cell-based; settings: 3 replicates
[4] = test system: L1210 leukemia cancer cells; assay: MTT proliferation assay, L1210 leukemia cancer cells; type: cell-based; settings: 72 hr incubation, formulated in saline, 6 replicates
Method: The L1210 leukemia cancer cells were grown in DMEM medium with 10% Donor Horse Serum, 1% Glutamine, 1% Non-essential Amino Acids, 0.1% Amphotericin, and 0.1% Gentamicin. Cells were diluted and seeded into 96-wells plate 2000 cells/ml, 400 cells/well, in a volume of 0.2 ml per well. The plates were incubated at 37° C. for 180 min. Following incubation, test substances were added at increasing concentrations from […] formulated in saline in 6 replicates each. The tested substances were Asp(Cytarabine).Acetate salt form, Asp(Cytarabine).hydrochloride salt form, Asp(Cytarabine).Methansulfonate salt form, Asp(Cytarabine).Benzenesulfonate salt form and Asp(Cytarabine).phosphate salt form. Test plates also included 6 replicate wells of saline as control. Plates were incubated at 37° C. for 72 hr prior to analysis. At the end of the exposure period, an MTT [3-(4,5-dimethylthiazole-2-yl)-2,5-diphenyl tetrazolium bromide] assay was performed. To each test well MTT at concentration of 5 mg/ml was added in a volume of 0.02 ml. Plates were incubated at 37° C. for 3 hr, then centrifuged at 3500 rpm for 6 minutes and the supernatants were aspirated. The pellets which contained MTT crystals were dissolved in 0.2 ml DMSO each. Absorbance was determined using ELISA reader at a wavelength of 570 nm.

[5] = test system: K562, Human chronic myelogenous leukemia; assay: MTT proliferation assay, K562 cells; type: cell-based; settings: 3 replicates
[6] = test system: CCRF-CEM, Human acute lymphoblastic leukemia; assay: MTT proliferation assay, CCRF-CEM cells; type: cell-based; settings: 3 replicates
[7] = Stability (decomposition) in solvents; type: physicochemical; settings: rate is determined by heat and time
[8] = Solubility in water and organic solvents; type: physicochemical

**Q.** For NC(CC(=O)Nc1ccn([C@@H]2O[C@H](CO)C(O)C2O)c(=O)n1)C(=O)O (some centres unmarked) [Asp(Cytarabine)•Acetate salt form, Asp(Cytarabine).Acetate], which IC50 [1] is on record?
**A.** The IC50 was 262 nM.

**Q.** And the IC50 [2]?
**A.** The IC50 was 19 µM.

**Q.** What about the IC50 [3] of the same compound?
**A.** The IC50 was 12 nM.

**Q.** What about the IC50 [4] of the same compound?
**A.** The IC50 was 116 nM.

**Q.** And the IC50 [5]?
**A.** Its IC50 is 355 nM.

**Q.** And the IC50 [6]?
**A.** Its IC50 is 23 nM.

**Q.** For Cl.NC(CC(=O)Nc1ccn([C@@H]2O[C@H](CO)C(O)C2O)c(=O)n1)C(=O)O (some centres unmarked) [Asp(Cytarabine)•hydrochloride salt form, Asp(Cytarabine).HCl], which “stability in strong polar aprotic solvents” value ([7]; DMSO and DMF) is on record?
**A.** The value was “decompose”.

**Q.** And the stability in water ([7]; water)?
**A.** The stability in water was “decompose”.

**Q.** What about the IC50 [4] of the same compound?
**A.** Its IC50 is 240 nM.

**Q.** And the “solubility in organic solvents” value ([8]; most organic solvents: acetonitrile, ethers, ketones, halogenated solvents)?
**A.** Its value is “insoluble”.

**Q.** And the solubility in water ([8]; water)?
**A.** Its solubility in water is “soluble”.

**Q.** For Asp(Cytarabine).benzenesulfonate, which IC50 [4] is on record?
**A.** Its IC50 is 23 nM.

**Q.** With Asp(Cytarabine).methanesulfonate as the compound, how does the IC50 [4] read?
**A.** Its IC50 is 2 nM.

**Q.** With “Asp(Cytarabine).phosphate [Asp(Cytarabine)•phosphate salt form]” as the compound, how does the IC50 [4] read?
**A.** Its IC50 is 34 nM.

— patent US12071450B2, “Salts of conjugates for cancer therapy” (Biosight Ltd., priority 2015, dated 2024)
